Laboratory results reported in PubChem BioAssay (NCI).
Where “and” joins values, the source holds several entries; their conditions need not be identical. Identical values can stand only once.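 Method: 48-hour compound exposure of cells in 96-well plates, five concentrations, linear interpolation of endpoints. GI50 is the concentration that inhibits growth by half. Definition used: TGI = concentration required for complete inhibition of growth.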

Columns and labels:
Assay in all cases: inhibition of tumour cell growth, NCI panel, 48 h
SF-295 CNS = tested on: SF-295 CNS
NCI-H226 lung = tested on: NCI-H226 lung
NCI-H522 lung = tested on: NCI-H522 lung
HCC-2998 colon = tested on: HCC-2998 colon
OVCAR-4 ovarian = tested on: OVCAR-4 ovarian
SK-MEL-28 melanoma = tested on: SK-MEL-28 melanoma
U251 CNS = tested on: U251 CNS
SF-539 CNS = tested on: SF-539 CNS
NCI-H23 lung = tested on: NCI-H23 lung
MCF7 breast = tested on: MCF7 breast

Row | SMILES | TGI (SF-295 CNS) | TGI (NCI-H226 lung) | TGI (NCI-H522 lung) | TGI (HCC-2998 colon) | TGI (OVCAR-4 ovarian) | TGI (SK-MEL-28 melanoma) | TGI (U251 CNS) | TGI (SF-539 CNS) | TGI (NCI-H23 lung) | GI50 (MCF7 breast) | TGI (MCF7 breast) | GI50 (OVCAR-4 ovarian) | GI50 (NCI-H226 lung) | GI50 (NCI-H522 lung) | GI50 (HCC-2998 colon) | GI50 (SK-MEL-28 melanoma) | GI50 (U251 CNS) | GI50 (NCI-H23 lung) | GI50 (SF-539 CNS) | GI50 (SF-295 CNS)
1 | COc1ccc2nc3ccccc3c(NCCN(CCCl)CCCl)c2c1 | 10 µM | 4.74 µM | 1.75 µM | 2.73 µM | 3.14 µM | 5.28 µM | 2.31 µM | – | – | – | – | – | – | – | – | – | – | – | – | –
2 | N#CCCN(c1ccc(C=O)cc1)S(=O)(=O)c1ccccc1 | > 100 µM | > 100 µM | > 100 µM | > 100 µM | > 100 µM | > 100 µM | > 100 µM | > 100 µM | – | – | – | – | – | – | – | – | – | – | – | –
3 | CSC1=Nc2ccccc2N=C(c2ccccc2)C1 | > 100 µM | > 100 µM | > 100 µM | > 100 µM | > 100 µM | > 100 µM | > 100 µM | > 100 µM | > 100 µM | – | – | – | – | – | – | – | – | – | – | –
4 | O=C(CC(=O)c1cccc([N+](=O)[O-])c1)C(=O)Nc1ccccc1 | > 100 µM | > 100 µM | > 100 µM | > 100 µM | > 100 µM | > 100 µM | > 100 µM | > 100 µM | > 100 µM | – | – | – | – | – | – | – | – | – | – | –
5 | CCN(CC)C(=O)CC12CCCCC1=Nc1ccccc12 (stereo not given) | > 100 µM | – | – | > 100 µM | > 100 µM | > 100 µM | > 100 µM | > 100 µM | > 100 µM | – | – | – | – | – | – | – | – | – | – | –
6 | CC[As](CC)SCC1OC(OC(C)=O)C(OC(C)=O)C(OC(C)=O)C1OC(C)=O (stereo not given) | 35.7 µM | 28.9 µM | 3.2 µM | 31.7 µM | 37 µM | 15.7 µM | 25.3 µM | 27.4 µM | 36.4 µM | – | – | – | – | – | – | – | – | – | – | –
7 | O=C(CC1(O)C(=O)Nc2ccccc21)c1ccccc1O (stereo not given) | > 100 µM | > 100 µM | > 100 µM | – | > 100 µM | > 100 µM | – | > 100 µM | > 100 µM | – | – | – | – | – | – | – | – | – | – | –
8 | CN(C)c1ccc(/C=c2/c3cc(O)ccc3n3c2cc(-c2ccccc2)[n+]3C)cc1 | > 100 µM | > 100 µM | 1.75 µM | > 100 µM | > 100 µM | 2.36 µM | 1.52 µM | – | 4.64 µM | 1.18 µM | > 100 µM | 2.83 µM | – | – | – | – | – | – | – | –
9 | CC(=O)O[C@@H]1CC[C@@]2(C)C(=O)C34C[C@@]5(C)C([C@@H](C)CCCC(C)C)CCC5(C)[C@](O)(O3)C(=O)[C@H]4C2C1(C)C (stereo not given in full) | 29.8 µM | 29.6 µM | 25.5 µM | 23.5 µM | 26.2 µM | 35.6 µM | 27.4 µM | 39.4 µM | 27.4 µM | – | – | – | – | – | – | – | – | – | – | –
10 | Clc1ccccc1C1SCc2nc3ccccc3n21 (stereo not given) | > 100 µM | 70.6 µM | 49.5 µM | – | > 100 µM | 76.4 µM | 54.8 µM | > 100 µM | > 100 µM | – | – | – | – | – | – | – | – | – | – | –
11 | CC1=CC[C@@H](C(C)(C)O)C[C@@H]1O | > 5000 µM | > 5000 µM | > 5000 µM | > 5000 µM | > 5000 µM | > 5000 µM | > 5000 µM | > 5000 µM | > 5000 µM | – | – | – | – | – | – | – | – | – | – | –
12 | CC1C(O)=C(O)c2ccccc2N1O (stereo not given) | > 100 µM | > 100 µM | > 100 µM | > 100 µM | > 100 µM | > 100 µM | > 100 µM | > 100 µM | > 100 µM | – | – | – | – | – | – | – | – | – | – | –
13 | COC(=O)C1=CC(=O)[C@@H]2CCCC[C@H]12 | – | > 100 µM | > 100 µM | > 100 µM | > 100 µM | > 100 µM | > 100 µM | > 100 µM | – | – | – | – | – | – | – | – | – | – | – | –
14 | CC/C(=C(/c1ccc(OCCN(C)C)cc1)c1ccc(OC(=O)CCCCCCCCC(=O)c2c(C)[nH]c(/C=C3\N=C(c4ccc[nH]4)C=C3OC)c2C)cc1)c1ccccc1 | – | > 100 µM | > 100 µM | > 100 µM | – | > 100 µM | > 100 µM | 61.6 µM | > 100 µM | 0.161 µM | 10.9 µM | – | > 100 µM | 21.2 µM | > 100 µM | 43.9 µM | 4.2 µM | 48.4 µM | 10.7 µM | –
15 | Cc1cc(-c2cc(OC(=O)c3ccccc3)ccc2Cl)cc2nnc(Nc3ccc(OCCN4CCCC4)cc3)nc12 | 2.79 µM | – | 3.08 µM | 3.37 µM | 3.16 µM | 2.93 µM | 3.16 µM | 2.57 µM | 3.66 µM | 0.186 µM | 0.403 µM | 1.65 µM | – | 1.37 µM | 1.81 µM | 1.5 µM | 1.65 µM | 1.72 µM | 1.29 µM | 1.45 µM
16 | CN1CCN(CCC=C2c3ccccc3Sc3ccc(S(=O)(=O)N(C)C)cc32)CC1 | – | 26.9 µM and 33.7 µM | 3.83 µM and 28.1 µM | 3.21 µM and 6.84 µM | > 100 µM and 58.9 µM | 3.22 µM and 3.35 µM | – | – | 71 µM and 52.7 µM | 1.91 µM and 2.81 µM | 4 µM and 14 µM | 9.5 µM and 12.8 µM | 7.04 µM and 15.9 µM | 1.87 µM and 8.15 µM | 1.55 µM and 2.57 µM | 1.8 µM and 1.77 µM | – | 12.2 µM and 15.7 µM | – | –
17 | N#Cc1cccc(C2C(=O)c3ccc(C(=O)c4ccc5c(c4)C(=O)N(c4ccc(Oc6ccc(N7C(=O)c8ccc(C(=O)c9ccc%10c(c9)C(=O)N(c9cccc(C#N)c9)C%10=O)cc8C7=O)cc6)cc4)C5=O)cc3C2=O)c1 (stereo not given) | > 100 µM | – | > 100 µM | > 100 µM | > 100 µM | > 100 µM | > 100 µM | > 100 µM | > 100 µM | – | – | – | – | – | – | – | – | – | – | –
18 | N#C/C(=C\c1ccc[nH]1)C(=O)c1ccccc1 | > 100 µM | > 100 µM | > 100 µM | > 100 µM | > 100 µM | > 100 µM | > 100 µM | > 100 µM | > 100 µM | – | – | – | – | – | – | – | – | – | – | –
19 | Fc1ccc(N=C2C=CC(=Nc3ccc(F)cc3)c3ccccc32)cc1 | > 100 µM | > 100 µM | > 100 µM | > 100 µM | – | > 100 µM | > 100 µM | > 100 µM | > 100 µM | – | – | – | – | – | – | – | – | – | – | –
20 | O=C1c2ccc3c4c(ccc(c24)C(=O)N1CCNCc1ccccc1)C(=O)N(CCNCc1ccccc1)C3=O | 5.2 µM | – | – | 3.15 µM | 2.71 µM | 7.13 µM | 5.42 µM | 3.64 µM | 3.89 µM | – | – | 1.41 µM | – | – | 1.74 µM | 2.59 µM | 2.02 µM | 1.86 µM | 1.88 µM | 1.78 µM
21 | COc1cc(CC(=O)O)c([N+](=O)[O-])cc1OC | > 100 µM | > 100 µM | > 100 µM | > 100 µM | > 100 µM | > 100 µM | > 100 µM | > 100 µM | > 100 µM | – | – | – | – | – | – | – | – | – | – | –
